The text below walks through data of patent US8624034B2, “Fluoro-pyridinone derivatives useful as antibacterial agents” (Pfizer Inc., priority 2011, dated 2014).

Assay [1] has as its target T1, Pseudomonas aeruginosa LpxC enzyme (Pseudomonas aeruginosa, UniProt P47205).
T1 construct: made in house; host or cells: E. coli
T1 sequence (P47205 1-303): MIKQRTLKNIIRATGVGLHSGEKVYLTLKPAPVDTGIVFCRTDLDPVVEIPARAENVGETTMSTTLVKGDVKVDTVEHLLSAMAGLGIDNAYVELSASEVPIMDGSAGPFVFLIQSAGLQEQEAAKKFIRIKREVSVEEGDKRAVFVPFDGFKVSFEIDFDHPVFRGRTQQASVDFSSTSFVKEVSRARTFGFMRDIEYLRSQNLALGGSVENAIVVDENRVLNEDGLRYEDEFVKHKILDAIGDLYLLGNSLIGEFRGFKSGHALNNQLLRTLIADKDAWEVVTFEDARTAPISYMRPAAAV
Description: IC50 assay, LpxC enzyme from P. aeruginosa (PA LpxC enzyme IC50). It is filed as biochemical. The settings on record: Table 2; LpxC enzyme 0.1 nM, 25° C., 1 hour; read-out: PA:IC50. Put shortly: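 IC50 values came from percent conversion, referenced to a no-enzyme control. Conversion was read by RapidFire HTMS mass spectrometry after HCl quench of the 1 h enzyme reaction.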

Assay [2] deals with Acinetobacter baumannii/haemolyticus, multidrug-resistant clinical isolate (AB-3167). As to the kind of experiment: MIC determination, AB-3167. It is filed as cell-based. The settings on record: Table 2, lower of duplicate values. Put shortly: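 MIC read visually after overnight growth across 2-fold concentration steps in the CLSI dilution method against the multidrug-resistant clinical isolate. Duplicate determinations, lower value reported when within 2-fold, otherwise repeated; every run checked with control organisms and reference drugs.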

In assay [3] the test system is Escherichia coli EC-1: VOGEL, mouse virulent. Description: MIC determination, EC-1. It is filed as cell-based. As to conditions: Escherichia coli, read-out: EC-1 (MIC), Table 2, lower of duplicate values. The procedure, abridged:
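Duplicate runs differing by more than 2-fold were repeated, and otherwise the lower MIC was kept. The test organism was E. coli EC-1 (VOGEL, mouse virulent), incubated overnight across 2-fold compound dilutions following CLSI guidelines. The MIC was read visually as the lowest concentration inhibiting growth relative to drug-free control.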

In assay [4] the test system is Pseudomonas aeruginosa UI-18: wild-type (PA-7). Description: MIC determination, PA-7. It is filed as cell-based. As to conditions: Table 2, lower of duplicate values. On the procedure: The in vitro antibacterial activity of compounds described in the Examples was evaluated by minimum inhibitory concentration (MIC) testing according to Clinical and Laboratory Standards Institute (CLSI). See: Clinical and Laboratory Standards Institute. Methods for Dilution Antimicrobial Susceptibility Tests for Bacteria that Grow Aerobically; Approved Standard-Eighth Edition. CLSI document M7-A8 [ISBN 1-56238-689-1]. Clinical and Laboratory Standards Institute, 940 West Valley Road, Suite 1400, Wayne, Pa. 19087-1898 USA, 2006; also Clinical and Laboratory Standards Institute. Performance Standards for Antimicrobial Susceptibility Testing; Twentieth Informational Supplement. CLSI document M100-S20 [ISBN 1-56238-716-2]. Clinical and Laboratory Standards Institute.
The MIC determination is a standard laboratory method for evaluating the antibacterial activity of a compound. The MIC represents the lowest drug concentration that inhibits visible growth of bacteria following overnight incubation. […] Typically, the drug concentration range is broken down into 2-fold increments (e.g. 0.06 μg/mL, 0.12 μg/mL. 0.25 μg/mL, 0.50 μg/mL, 1.0 μg/mL, etc.) and the various drug concentrations are all individually incubated overnight with approximately the same number of bacteria. The MIC is then determined by visually inspecting the drug effect at each concentration, and identifying the lowest drug concentration that has inhibited bacterial growth as compared to the drug free control. Typically, bacteria continue to grow at drug concentrations lower than the MIC and don't grow at concentrations at and above the MIC.
The MIC values described in Table 2 and 3 below were derived from assays wherein each test compound was evaluated in duplicate. In cases where the duplicate values varied by 0-2-fold, the lower of the two values was reported below. Generally speaking, if the duplicate values varied by more than 2-fold, the assay was considered non-valid and was repeated until the variation between duplicate runs was ≦2-fold. In line with the CLSI guidelines referred to above, both control organisms and reference compounds were utilized in each MIC assay to provide proper quality control. MIC values generated with these control organisms and reference compounds were required to fall within a defined range for the assay to be considered valid and be included herein. Those skilled in the art will recognize that MIC values can and do vary from experiment to experiment. Generally speaking, it should be recognized that MIC values often vary +/−2-fold from experiment to experiment. While a single MIC is reported for each compound and each microorganism, the reader should not conclude that each compound was only tested once. Several of the compounds were subjected to multiple tests. The data reported in Tables 2 and 3 is reflective of the compounds relative activity and different MICs may have been generated on these occasions in line with the guidelines described above.
The following bacterial strains were used in these MIC determinations:
1) Pseudomonas aeruginosa UI-18: Wild-type, labeled as PA-7 in Tables 2 and 3;

SMILES strings stand for the structures. Converted amounts (≈) assume the structure as drawn.

For `CCCc1ccc(-c2cc(=O)n(CC[C@](C)(C(=O)NO)S(C)(=O)=O)cc2F)cc1` [Example 11, (2R)-4-[5-Fluoro-2-oxo-4-(4-propylphenyl)pyridin-1(2H)-yl]-N-hydroxy-2-methyl-2-(methylsulfonyl)butanamide], the IC50 in assay [1] came to 0.482 nM. In addition, the MIC was above 64 µg/mL in assay [2], 0.125 µg/mL (≈ 0.294 µM) in assay [3] and 0.5 µg/mL (≈ 1.18 µM) in assay [4].
With `C[C@@](CCn1cc(F)c(-c2ccc(OCC(F)(F)F)cc2)cc1=O)(C(=O)NO)S(C)(=O)=O` [Example 7, (2R)-4-{5-Fluoro-2-oxo-4-[4-(2,2,2-trifluoroethoxy)phenyl]pyridin-1(2H)-yl}-N-hydroxy-2-methyl-2-(methylsulfonyl)butanamide], in assay [1], the IC50 came to 0.576 nM. Besides, the minimal inhibitory concentration (MIC) was above 64 µg/mL in assay [2], 0.25 µg/mL (≈ 0.52 µM) in assay [3] and 1 µg/mL (≈ 2.08 µM) in assay [4].
As to `C[C@@](CCn1cc(F)c(-c2ccc(-c3ncccn3)cc2)cc1=O)(C(=O)NO)S(C)(=O)=O` [Example 20, (2R)-4-[5-Fluoro-2-oxo-4-(4-pyrimidin-2-ylphenyl)pyridin-1(2H)-yl]-N-hydroxy-2-methyl-2-(methylsulfonyl)butanamide], in assay [1], the IC50 was 0.945 nM. For the same molecule, the minimal inhibitory concentration (MIC) was above 64 µg/mL in assay [2], 0.125 µg/mL (≈ 0.271 µM) in assay [3] and 1 µg/mL (≈ 2.17 µM) in assay [4].
In the case of `COc1ccc(-c2cc(=O)n(CC[C@](C)(C(=O)NO)S(C)(=O)=O)cc2F)c(F)c1` [Example 27, (2R)-4-[5-Fluoro-4-(2-fluoro-4-methoxyphenyl)-2-oxopyridin-1(2H)-yl]-N-hydroxy-2-methyl-2-(methylsulfonyl)butanamide], the concentration for half-maximal inhibition (IC50) in assay [1] was found to be 0.0498 nM. The figures for the MIC in assay [2], in assay [3] and in assay [4] were above 64 µg/mL, 0.25 µg/mL (≈ 0.581 µM) and 0.5 µg/mL (≈ 1.16 µM), respectively.
On to `Cc1cccc(-c2cc(=O)n(CC[C@](C)(C(=O)NO)S(C)(=O)=O)cc2F)c1` [Example 13, (2R)-4-[5-Fluoro-4-(3-methylphenyl)-2-oxopyridin-1(2H)-yl]-N-hydroxy-2-methyl-2-(methylsulfonyl)butanamide], for which the IC50 in assay [1] came to 1.05 nM. In addition, the MIC in assay [2] is above 64 µg/mL; in assay [3], 1 µg/mL (≈ 2.52 µM); in assay [4], 1 µg/mL (≈ 2.52 µM).
As to `COc1ccc(-c2cc(=O)n(CC[C@](C)(C(=O)NO)S(C)(=O)=O)cc2F)cc1C` [Example 34, (2R)-4-[5-Fluoro-4-(4-methoxy-3-methylphenyl)-2-oxopyridin-1(2H)-yl]-N-hydroxy-2-methyl-2-(methylsulfonyl)butanamide], in assay [1], the IC50 amounted to 0.834 nM. Also, the MIC in assay [2] is above 64 µg/mL; in assay [3], 0.25 µg/mL (≈ 0.586 µM); in assay [4], 0.5 µg/mL (≈ 1.17 µM).
On to `[2H]C([2H])([2H])C([2H])([2H])Oc1ccc(-c2cc(=O)n(CC[C@](C)(C(=O)NO)S(C)(=O)=O)cc2F)cc1` [Example 45, (2R)-4-[4-(4-Pentadeuteroethoxyphenyl)-5-fluoro-2-oxopyridin-1(2H)-yl]-N-hydroxy-2-methyl-2-(methylsulfonyl)butanamide], for which the half-maximal inhibitory concentration (IC50) in assay [1] turned out to be 0.547 nM. The values for the MIC in assay [2], in assay [3] and in assay [4] were above 64 µg/mL, 0.125 µg/mL (≈ 0.29 µM) and 0.5 µg/mL (≈ 1.16 µM), respectively.
As to `C[C@@](CCn1cc(F)c(-c2ccc(Cl)cc2)cc1=O)(C(=O)NO)S(C)(=O)=O` [Example 3, (2R)-4-[4-(4-Chlorophenyl)-5-fluoro-2-oxopyridin-1(2H)-yl]-N-hydroxy-2-methyl-2-(methylsulfonyl)butanamide], in assay [1], the IC50 stood at 0.325 nM. The results for the MIC in assay [2], in assay [3] and in assay [4] were 64 µg/mL (≈ 154 µM), 0.25 µg/mL (≈ 0.6 µM) and 0.25 µg/mL (≈ 0.6 µM), respectively.
For `C[C@@](CCn1cc(F)c(-c2ccccc2)c(O)c1=O)(C(=O)NO)S(C)(=O)=O` [Example 40, (2R)-4-(5-Fluoro-3-hydroxy-2-oxo-4-phenylpyridin-1(2H)-yl)-N-hydroxy-2-methyl-2-(methylsulfonyl)butanamide], the half-inhibitory concentration (IC50) in assay [1] is above 100 nM. Moreover, the values for the MIC in assay [2], in assay [3] and in assay [4] were 64 µg/mL (≈ 161 µM), 16 µg/mL (≈ 40.2 µM) and 16 µg/mL (≈ 40.2 µM), respectively.
In the case of `C[C@@](CCn1cc(F)c(-c2ccc3nccnc3c2)cc1=O)(C(=O)NO)S(C)(=O)=O` [Example 24, (2R)-4-(5-Fluoro-2-oxo-4-quinoxalin-6-ylpyridin-1(2H)-yl)-N-hydroxy-2-methyl-2-(methylsulfonyl)butanamide], the IC50 in assay [1] is 1.23 nM. Also, the MIC in assay [2] was above 64 µg/mL; in assay [3] it was 4 µg/mL (≈ 9.21 µM); in assay [4], 4 µg/mL (≈ 9.21 µM).
For `Cc1cc(-c2cc(=O)n(CC[C@](C)(C(=O)NO)S(C)(=O)=O)cc2F)ccc1F` [Example 14, (2R)-4-[5-Fluoro-4-(4-fluoro-3-methylphenyl)-2-oxopyridin-1(2H)-yl]-N-hydroxy-2-methyl-2-(methylsulfonyl)butanamide], the IC50 in assay [1] came out at 0.758 nM. Besides, the MIC in assay [2] was above 64 µg/mL; in assay [3], 0.5 µg/mL (≈ 1.21 µM); in assay [4], 0.5 µg/mL (≈ 1.21 µM).
Regarding `COc1cccc(-c2cc(=O)n(CC[C@](C)(C(=O)NO)S(C)(=O)=O)cc2F)c1F` [Example 17, (2R)-4-[5-fluoro-4-(2-fluoro-3-methoxyphenyl)-2-oxopyridin-1(2H)-yl]-N-hydroxy-2-methyl-2-(methylsulfonyl)butanamide], the IC50 in assay [1] amounted to 0.5 nM. For the same molecule, the minimum inhibitory concentration (MIC) in assay [2] is above 64 µg/mL; in assay [3], 0.5 µg/mL (≈ 1.16 µM); in assay [4] it was 1 µg/mL (≈ 2.32 µM).
`Cc1cnn(-c2ccc(-c3cc(=O)n(CC[C@](C)(C(=O)NO)S(C)(=O)=O)cc3F)cc2)n1` [Example 23, (2R)-4-{5-Fluoro-4-[4-(4-methyl-2H-1,2,3-triazol-2-yl)phenyl]-2-oxopyridin-1(2H)-yl}-N-hydroxy-2-methyl-2-(methylsulfonyl)butanamide]: in assay [1], the 50% inhibitory concentration (IC50) is 0.287 nM. For the same molecule, the minimum inhibitory concentration (MIC) in assay [2] was above 64 µg/mL; in assay [3], 0.06 µg/mL (≈ 0.129 µM); in assay [4], 0.5 µg/mL (≈ 1.08 µM).
Regarding `C[C@@](CCn1cc(F)c(-c2ccc(OC[C@H]3CC[C@H](O)CC3)cc2)cc1=O)(C(=O)NO)S(C)(=O)=O` [Example 18, (2R)-4-[5-Fluoro-4-{4-[(trans-4-hydroxycyclohexyl)methoxy]phenyl}-2-oxopyridin-1(2H)-yl]-N-hydroxy-2-methyl-2-(methylsulfonyl)butanamide], the IC50 in assay [1] came out at 0.463 nM. Besides, the MIC in assay [2] was above 64 µg/mL; in assay [3], 0.125 µg/mL (≈ 0.245 µM); in assay [4], 1 µg/mL (≈ 1.96 µM).
With `[2H]C([2H])([2H])Oc1ccc(-c2cc(=O)n(CC[C@](C)(C(=O)NO)S(C)(=O)=O)cc2F)cc1` [Example 44, (2R)-4-[5-Fluoro-4-(4-trideuteromethoxyphenyl)-2-oxopyridin-1(2H)-yl]-N-hydroxy-2-methyl-2-(methylsulfonyl)butanamide], the half-maximal inhibitory concentration (IC50) in assay [1] is 0.664 nM. Further, the figures for the minimal inhibitory concentration (MIC) in assay [2], in assay [3] and in assay [4] were above 64 µg/mL, 0.25 µg/mL (≈ 0.602 µM) and 0.25 µg/mL (≈ 0.602 µM), respectively.
On to `CCOc1ccc(-c2cc(=O)n(CC[C@](C)(C(=O)NO)S(C)(=O)=O)cc2F)cc1` [Example 10, (2R)-4-[4-(4-Ethoxyphenyl)-5-fluoro-2-oxopyridin-1(2H)-yl]-N-hydroxy-2-methyl-2-(methylsulfonyl)butanamide], for which, in assay [1], the half-maximal inhibitory concentration (IC50) came to 0.823 nM. The minimum inhibitory concentration (MIC) in assay [2] is above 64 µg/mL; in assay [3], 0.25 µg/mL (≈ 0.586 µM); in assay [4], 1 µg/mL (≈ 2.34 µM).

Usually IC50 stands for the concentration that gives 50% inhibition. One may read the MIC as the lowest concentration that inhibits growth of the organism.
